From patent US8906684B2, “Three dimensional cell patterned biopolymer scaffolds and methods of making the same” (The Regents of the University of California, priority 2002, dated 2014)

System: HepG2 cells
Type: cell-based
Conditions: HepG2, amounts used for photocrosslinking
Description: Cell culture and viability assays in the presence of photopolymerizing agents. HepG2 cells (American Type Culture Collection, Manassas, Va.) were cultured in 175 cm^2 flasks (Fisher, Springfield, N.J.) and were passaged preconfluency no more than 13 times. The cells were maintained in minimal essential medium (MEM; Gibco, Grand Island, N.Y.) supplemented with 5% fetal bovine serum, 100 ug/mL penicillin, and 100 ug/mL streptomycin and incubated at 5% CO2 and 37° C. The cells to be incorporated into hydrogels were added to the prepolymer solution containing initiator and were mixed gently prior to UV exposure.
In order to explore the effects of photoinitiator and UV exposure on cell death, individual components were tested in HepG2 cultures. 3.0×10^5 cells were seeded in six-well culture dishes and allowed to proliferate until near confluency. A solution of 300 mg/mL of 2,2-dimethyl-2-phenyl-acetophenone (Aldrich) in 1-vinyl-2-pyrrolidinone (Sigma) was added to MEM in concentrations of 0, 3, 5, and 10 ul/ml. […] Cell viability was measured by an Mi viability assay, which forms a purple precipitate by cleavage of the tetrazolium ring by mitochondrial dehydrogenase enzymes. […] The absorbance was measured at 570 nm with a SpectraMax Plus spectrophotometer (Molecular Devices, Sunnyvale, Calif.). […]

**Q.** For `C=CN1CCCC1=O` [1-vinyl-2-pyrrolidinone], which “toxicity to cells of initiator solvent alone” value is on record?
**A.** The value was “not found to be toxic”.
